Laboratory results published in article PMC7139504, “New Arylethanolimidazole Derivatives as HO-1 Inhibitors with Cytotoxicity against MCF-7 Breast Cancer Cells” (International Journal of Molecular Sciences, 2020).
Values joined by “and” are separate entries in the source; they are usually repeats but may differ in a detail not shown here. Equal entries are not always repeated. Where two headings read alike, the source gives them in different places.

Columns and labels:
HO-1 [1] = target: T1, HO-1 (Rattus norvegicus, UniProt P06762); assay: HO-1 inhibition, bilirubin formation in rat spleen microsomal fraction; type: biochemical
T1 construct: selected in order to use the most native (i.e., closest to in vivo) forms of HO-1 and HO-2; from tissue; host or cells: spleen microsomal fraction of male Sprague-Dawley rats
T1 sequence (P06762 1-289): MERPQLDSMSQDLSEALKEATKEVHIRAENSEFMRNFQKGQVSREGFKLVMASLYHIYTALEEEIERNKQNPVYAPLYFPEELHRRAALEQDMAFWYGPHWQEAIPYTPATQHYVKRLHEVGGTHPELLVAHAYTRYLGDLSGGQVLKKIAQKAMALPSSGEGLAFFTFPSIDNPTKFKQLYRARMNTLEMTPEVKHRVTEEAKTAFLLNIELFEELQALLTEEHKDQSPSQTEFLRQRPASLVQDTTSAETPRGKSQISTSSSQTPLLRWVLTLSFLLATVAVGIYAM
Experimental: (§1) HO-1 and HO-2 were obtained from the microsomal fractions of rat spleen and rat brain, respectively. Enzymatic activity of both isoforms was determined by measuring the bilirubin formation using the difference in absorbance at 464–530 nm, as described in the experimental section. Compounds A–C, and tin protoporphyrin (SnPP) were used as reference substances. Inhibition of enzymes activity is expressed as IC50 (μM), and results are resumed in Table 1.
The dominance of HO-1 protein in the rat spleen and of HO-2 in the rat brain has been well documented; thus, the microsomal fraction, prepared by differential centrifugation, from rat spleen and brain have been used to obtain HO-1 and HO-2. These particular microsomal preparations were selected in order to use the most native (i.e., closest to in vivo) forms of HO-1 and HO-2. Spleen and brain microsomal fractions, from Sprague–Dawley rats, were prepared following a published procedure. All experiments complied with current Italian law and met the guidelines of the Institutional Animal Care and Use Committee of MINISTRY OF HEALTH (Directorate General for Animal Health and Veterinary Medicines, Italy). Male Sprague–Dawley albino rats (150 g body weight and age 45 d) were used. Rats had free access to water, and they were maintained at room temperature with a natural photoperiod (12 h:12 h light–dark cycle). For measuring HO-1 and HO-2 activities, each rat was sacrificed and their spleen and brain were excised and weighed. A homogenate (15%, w/v) of spleens and brains pooled from four rats was prepared in ice-cold HO-homogenizing buffer (50 mM Tris buffer, pH 7.4, containing 0.25 M sucrose) using a Potter–Elvehjem homogenizing system with a Teflon pestle. The microsomal fraction of rat spleen and brain homogenate was obtained by centrifugation at 10,000× g for 20 min at 4 °C, followed by centrifugation of the supernatant at 100,000× g for 60 min at 4 °C. The 100,000× g pellet (microsomes) was resuspended in 100 mM potassium phosphate buffer, pH 7.8, containing 2 mM MgCl2 with a Potter–Elvehjem homogenizing system. Equal aliquots of the rat spleen and brain microsomal fractions were prepared, placed into microcentrifuge tubes, and stored at −80 °C for up to 2 months. Finally, the Lowry method was used to determine the protein concentration of the microsomal fraction.
Liver cytosol has been used as a source of biliverdin reductase. Rat liver was perfused through the hepatic portal vein with cold 0.9% NaCl, then it was cut and flushed with 2 × 20 mL of ice-cold PBS to remove all of the blood. Liver tissue was homogenized in three volumes of a solution containing 1.15% KCl w/v and Tris buffer 20 mM, pH 7.8 on ice. Homogenates were centrifuged at 10,000× g for 20 min at 4 °C. The supernatant was decanted and centrifuged at 100,000× g for 1 h at 4 °C to sediment the microsomes. The 100,000× g supernatant was saved and then stored in small amounts at −80 °C after its protein concentration was measured.
The measurement of bilirubin formation, using the difference in absorbance at 464–530 nm, was used to determine the HO-1 and HO-2 activities, as previously described by Ryter et al.. Reaction mixtures (500 μL) consisted of 20 mM Tris–HCl, pH 7.4, (1 mg/mL) microsomal extract, 0.5–2 mg/mL biliverdin reductase, 1 mM NADPH, 2 mM glucose 6-phosphate (G6P), 1 U G6P dehydrogenase, 25 μM hemin, and 10 μL of DMSO (or the same volume of DMSO solution of test or reference compounds to a final concentration of 100, 10, and 1 μM). Incubations were carried out for 60 min at 37 °C in a circulating water bath in the dark. One volume of chloroform was added to stop the reactions. Then, the chloroform phase was recovered, and the amount of bilirubin, which was formed has been measured with a double-beam spectrophotometer as OD464–530 nm (extinction coefficient, 40 mM/cm^−1 for bilirubin). […]

MDA-MB-231 cells = assay: Sulforhodamine B (SRB) cytotoxicity assay, MDA-MB-231; type: cell-based; settings: hormone-resistant breast cancer cells, 10–100 μM, 48 h
Experimental: (§2) Both cell lines were treated with 10–100 μM of compound 5a for 48 h. Cell survival at different concentrations was calculated compared to untreated controls. At the end of treatment, cell number was determined using the sulforhodamine B (SRB) colorimetric assay based on the measurement of cellular protein content.
(§3) MCF-7 and MDA-MB-231 cells were maintained in complete growth media (DMEM/Ham’s F12 supplemented with 10% fetal bovine serum, 2 mM L-glutamine, 100 units/mL penicillin, 100 units/mL of streptomycin, and 2.2 g/L of NaHCO3) at 37 °C in a humidified atmosphere of 5% CO2. For all procedures, cells were harvested using TrypLE Express (Life Technologies, Auckland, New Zealand).
(§4) Cells were seeded into 96-well plates and incubated for 24 h to test the cytotoxic effect of the HO inhibitor. After 24 h incubation, different concentrations of the HO inhibitor were administered for 48 h. Following the incubation, cells were fixed using 10% trichloro-acetic acid (TCA). The cytotoxicity was determined using the sulforhodamine B assay was used, as previously described, to determine the cytotoxicity of the HO-1 inhibitor. IC50 (the concentration required to decrease the cell number by 50%) was determined by non-linear regression using Graphpad prism 6 software. Treatments were performed in triplicate, and data represent the mean of three independent experiments.

MCF-7 cells = assay: Sulforhodamine B (SRB) cytotoxicity assay, MCF-7; type: cell-based; settings: Homo sapiens, MCF7, hormone-sensitive breast cancer cells, 10–100 μM, 48 h, mean ± SEM (n = 3), read-out: IC50 cytotoxicity against MCF-7
Experimental: as §2, §3, §4

HO-2 [2] = target: T2, HO-2 (Rattus norvegicus, UniProt P23711); assay: HO-2 inhibition, bilirubin formation in rat brain microsomal fraction; type: biochemical; settings: mean ± SD of three determinations
T2 construct: selected in order to use the most native (i.e., closest to in vivo) forms of HO-1 and HO-2; from tissue; host or cells: brain microsomal fraction of male Sprague-Dawley rats
T2 sequence (P23711 1-315): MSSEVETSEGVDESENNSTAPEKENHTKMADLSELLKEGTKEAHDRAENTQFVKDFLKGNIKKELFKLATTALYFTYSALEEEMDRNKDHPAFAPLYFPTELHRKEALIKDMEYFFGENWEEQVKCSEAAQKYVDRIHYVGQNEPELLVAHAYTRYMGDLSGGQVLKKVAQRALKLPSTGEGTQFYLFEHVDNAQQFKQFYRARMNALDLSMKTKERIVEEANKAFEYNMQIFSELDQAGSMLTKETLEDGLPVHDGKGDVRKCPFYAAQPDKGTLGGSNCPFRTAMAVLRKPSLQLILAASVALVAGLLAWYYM
Experimental: as §1
The dominance of HO-1 protein in the rat spleen and of HO-2 in the rat brain has been well documented; thus, the microsomal fraction, prepared by differential centrifugation, from rat spleen and brain have been used to obtain HO-1 and HO-2. These particular microsomal preparations were selected in order to use the most native (i.e., closest to in vivo) forms of HO-1 and HO-2. Spleen and brain microsomal fractions, from Sprague–Dawley rats, were prepared following a published procedure. All experiments complied with current Italian law and met the guidelines of the Institutional Animal Care and Use Committee of MINISTRY OF HEALTH (Directorate General for Animal Health and Veterinary Medicines, Italy). Male Sprague–Dawley albino rats (150 g body weight and age 45 d) were used. Rats had free access to water, and they were maintained at room temperature with a natural photoperiod (12 h:12 h light–dark cycle). For measuring HO-1 and HO-2 activities, each rat was sacrificed and their spleen and brain were excised and weighed. […]
Liver cytosol has been used as a source of biliverdin reductase. […] The 100,000× g supernatant was saved and then stored in small amounts at −80 °C after its protein concentration was measured.
The measurement of bilirubin formation, using the difference in absorbance at 464–530 nm, was used to determine the HO-1 and HO-2 activities, as previously described by Ryter et al.. […] Then, the chloroform phase was recovered, and the amount of bilirubin, which was formed has been measured with a double-beam spectrophotometer as OD464–530 nm (extinction coefficient, 40 mM/cm^−1 for bilirubin). […]

HO-2 [3] = target: T2, HO-2; settings: reference compounds; data taken from ref 32; read-out: IC50 (μM) ± SD HO-2; cited from earlier work
HO-1 [4] = target: T1, HO-1; settings: reference compounds; data taken from ref 32; read-out: IC50 (μM) ± SD HO-1; cited from earlier work
[5] = experimental values repeated in the docking table, read-out: IC50 exp. (μM) HO-1
[6] = rat spleen microsomal fraction, mean ± SD of three determinations, read-out: IC50 (μM) ± SD HO-1

SMILES	IC50 (HO-1 [1]; [5]) [µM]	IC50 (HO-1 [1]; [6]) [µM]	melting point [°C]	further results
c1ccc(-c2cccc(CCn3ccnc3)c2)cc1 [Compound 2c, 1-(2-((1,1’-biphenyl)-3-yl)ethyl)-1H-imidazole]	46.8 ± 1.8	46.8 ± 1.8		
O=C(Cn1ccnc1)c1ccc(OCc2ccc(Br)cc2)cc1 [Compound 4i]		55.46 ± 0.05		
OC(Cn1ccnc1)c1cccc(-c2ccccc2)c1 (centres unmarked) [B]				IC50 (HO-2 [3]): > 100 µM; IC50 (HO-1 [4]): 0.95 µM
Brc1ccc(COc2ccc(CCn3ccnc3)cc2)cc1 [Compound 2b, 1-(4-((4-bromobenzyl)oxy)phenethyl)-1H-imidazole]	62.9 ± 3.2	62.9 ± 3.2	147.5 to 149.7	
Brc1cccc(CCn2ccnc2)c1 [Compound 2a, 1-(3-bromophenethyl)-1H-imidazole]	100	100 ± 5.6		
O=C(Cn1ccnc1)c1cccc(Br)c1 [Compound 4g]		38.2 ± 1.8		
OC(Cn1ccnc1)c1ccc(OCc2ccc(Br)cc2)cc1 (centres unmarked) [C]				IC50 (HO-2 [3]): > 100 µM
C=Cc1c2[n-]c(c1C)/C=c1\[n-]/c(c(C)c1C=C)=C\c1[n-]c(c(CCC(=O)O)c1C)/C=c1\[n-]c(c(C)c1CCC(=O)O)=C2.[Sn+4] [SnPP, tin protoporphyrin, reference compound]		0.58 ± 0.03		IC50 (HO-2 [2]): 0.36 ± 0.01 µM
O=C(Cn1ccnc1)c1cccc(-c2ccccc2)c1 [Compound 4h]		19.9 ± 2.5		

Second part, led by results:

IC50 (HO-1 [1]; [5]) [µM]	IC50 (HO-1 [1]; [6]) [µM]	melting point [°C]	SMILES	further results
41 ± 1.5	41 ± 1.5	120.1 to 123	OC(Cn1ccnc1)c1ccc(OCc2cccc(Br)c2)cc1 (centres unmarked) [Compound 5c, 1-[4-[(3-bromobenzyl)oxy]phenyl]-2-(1H-imidazol-1-yl)ethanol]	
0.9 ± 0.02	0.9 ± 0.02	123 to 126	OC(Cn1ccnc1)c1cccc(OCc2ccc(Br)cc2)c1 (centres unmarked) [Compound 5a, 1-[3-[(4-bromobenzyl)oxy]phenyl]-2-(1H-imidazol-1-yl)ethanol]	cytotoxicity against MDA-MB-231 (MDA-MB-231 cells): no cytotoxicity; IC50 (MCF-7 cells): 47.4 ± 6.8 µM; IC50 (HO-2 [2]): 54 µM and 53.6 µM
> 100	> 100		Clc1ccc(COC(Cn2ccnc2)c2cccc(Br)c2)cc1 (centres unmarked) [Compound 6a, 1-(2-(3-bromophenyl)-2-((4-chlorobenzyl)oxy)ethyl)-1H-imidazole]	
9 ± 2.2	9 ± 2.2	120 to 126	OC(Cn1ccnc1)c1ccc(OCc2ccccc2Br)cc1 (centres unmarked) [Compound 5d, 1-[4-[(2-bromobenzyl)oxy]phenyl]-2-(1H-imidazol-1-yl)ethanol]	IC50 (HO-2 [2]): 15.8 ± 1.6 µM
46 ± 1.9	46 ± 1.9	93.5 to 99.4	OC(Cn1ccnc1)c1cccc(OCc2cccc(Br)c2)c1 (centres unmarked) [Compound 5e, 1-[3-[(3-bromobenzyl)oxy]phenyl]-2-(1H-imidazol-1-yl)ethanol]	
> 100	≥ 100	121.5 to 130	OC(Cn1ccnc1)c1ccccc1OCc1ccc(Br)cc1 (centres unmarked) [Compound 5b, 1-[2-[(4-bromobenzyl)oxy]phenyl]-2-(1H-imidazol-1-yl)ethanol]	
44 ± 1.8	44 ± 1.8	132 to 140	OC(Cn1ccnc1)c1cccc(OCc2ccccc2Br)c1 (centres unmarked) [Compound 5f, 1-[3-[(2-bromobenzyl)oxy]phenyl]-2-(1H-imidazol-1-yl)ethanol]	
66 ± 3.2	66 ± 3.2		Clc1ccc(Cl)c(COC(Cn2ccnc2)c2cccc(Br)c2)c1 (centres unmarked) [Compound 6b, 1-(2-(3-bromophenyl)-2-((2,5-dichlorobenzyl)oxy)ethyl)-1H-imidazole]	
